Measured values: patent publication US11331364B2, “Use for JNK inhibitor molecules for treatment of various diseases” (Xigen Inflammation Ltd., priority 2014, dated 2022)
pIC50: −log10 of the molar value. Square brackets hold non-standard residues; d marks the D form. Peptide text beside a SMILES is read from it.

How the values were obtained:
hJNK2 = hJNK2 (Homo sapiens, UniProt P45984); assay: hJNK2 | IC50; conditions: read-out: hJNK2 | IC50
Outline: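 JNK inhibitors tested as fusion proteins of a JNK-inhibitory (poly)peptide and a transporter sequence; IC50 reported in the nM range with SEM and number of experiments.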

human whole blood = assay: CD3/CD28-induced TNF-α release in human whole blood, 3 days; type: cell-based; conditions: 1, 3, 10 μM, antibodies 2 μg/mL
Protocol: FIG. 24 JNK inhibition and TNF-α release in human whole blood. The JNK inhibitor with SEQ ID NO: 172 was added at three different concentrations, namely 1, 3 and 10 μM 1 h before whole blood stimulation with CD3+/−CD28 antibodies (2 μg/mL) for 3 days.
Whole blood from human healthy volunteers was collected using a venipuncture connected to a pre-labeled vacuum tube containing sodium citrate. Tubes are gently mixed by inversion 7-8 times; and are then kept at RT until stimulation. 350 μl of RPMI+P/S were added into 1.2 ml-96-well plate. 10 times concentrated of SEQ ID NO: 172 was prepared in RPMI+P/S (50 μl per well). 50 μl was added into 1.2 ml-96 well plates. 50 μl of whole blood was then added in each well where either medium alone or JNK inhibitor has been previously added. Whole blood was incubated at 37° C., 5% CO2 for 60 min. 50 μl/well of ligands diluted in RPMI+P/S was prepared, corresponding to the final dilution 10 times concentrated. After 60 min of incubation, ligand was added; wells were then mixed by pipetting up and down the blood. Whole blood was incubated for 3 days at 37° C. (wells were mixed by pipetting each well up and down once per day). […] Cytokine were then measured using standard Elisa kits. Results are expressed as pg/ml of supernatant of the measured cytokine. […]

[1] = tested on: acute CYP-induced cystitis in female Sprague-Dawley rats; assay: Cyclophosphamide-induced acute cystitis, intravesical treatment, visceral pain and bladder inflammation; type: in vivo, rat; conditions: 50 mg/mL, i.ves.; 24 h after CYP
Protocol: This preclinical model is well-used to test therapeutic approaches for the treatment of interstitial cystitis/painful bladder syndrome (IC/PBS).
Animals were acclimatized to the laboratory conditions for at least 3 days before the start of any experiments. The animals were allocated to the following four experimental groups (n=10 animals per group):
To induce acute cystitis, a single i.p. injection of CYP at a dose of 150 mg/kg in a final volume of 5 mL/kg was performed. Control rats received physiological saline under the same experimental conditions as CYP (final volume of 5 mL/kg, i.p.).
On the day of each experiment, weight of rats was recorded.
Standardized conditions including fixed time-of-day (a.m. to minimize the potential circadian variations in the behaviours responses) and single-experimenter testing of all animals were applied to minimize variability behavior-based pain testing. Visceral pain including allodynia and hyperalgesia was evaluated by applying to the lower abdomen, close to the urinary bladder, a set of 8 calibrated von Frey filaments of increasing forces (1, 2, 4, 6, 8, 10, 26 and 60 g) with an interstimulus interval of 5 seconds. Prior testing, the abdominal area designed for mechanical stimulation of each animal was shaved. Animals were then placed on a raised wire mesh floor under individual transparent Plexiglas box and acclimatized for at least 30 minutes before starting the von Frey test. Filaments were then applied 1-2 seconds through the mesh floor with enough strength to cause the filament to slightly bend. Each filament was tested 3 times. Care was taken to stimulate different areas within the lower abdominal region in the vicinity of the urinary bladder to avoid desensitization.
Nociceptive behaviors were scored for each animal and each filament as follows:
The study design is schematically shown in FIG. 50 A. Birefly, acute cystitis was induced by CYP injection (i.p.) at Do (as described above).
Urinary bladders were rapidly collected and cleaned from lipoid tissue. Urinary bladders were weighed, cut at the bladder neck as well as oedema and haemorrhage scoring was performed (see table below). Finally, wall thickness was measured using a digital caliper by placing the bladder wall between the two outside jaws.

Sequence of hJNK2 (P45984 whole entry, looked up, the tested form may be a part): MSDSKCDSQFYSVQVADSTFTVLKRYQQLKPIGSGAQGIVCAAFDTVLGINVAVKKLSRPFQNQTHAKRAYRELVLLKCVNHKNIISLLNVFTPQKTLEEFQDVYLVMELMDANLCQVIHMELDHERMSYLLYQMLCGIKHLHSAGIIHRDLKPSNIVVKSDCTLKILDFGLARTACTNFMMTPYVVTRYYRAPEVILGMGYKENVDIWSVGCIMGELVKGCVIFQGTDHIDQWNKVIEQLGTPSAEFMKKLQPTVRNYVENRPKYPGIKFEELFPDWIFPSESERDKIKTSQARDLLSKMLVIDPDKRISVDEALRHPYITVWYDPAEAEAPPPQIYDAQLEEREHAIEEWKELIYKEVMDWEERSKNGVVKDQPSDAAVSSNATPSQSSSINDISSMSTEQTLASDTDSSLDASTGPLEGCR

CC(C)C[C@H](NC(=O)[C@H](CC(N)=O)NC(=O)[C@H](CC(C)C)NC(=O)[C@@H](NC(=O)[C@@H](C)NC(=O)[C@@H]1CCCN1C(=O)[C@H](CCCNC(=N)N)NC(=O)[C@@H](CCCCN)NC(=O)[C@@H]1CCCN1C(=O)[C@H](CCCNC(=N)N)NC(=O)[C@@H](CCCNC(=N)N)NC(=O)[C@H](CCCNC(=N)N)NC(=O)[C@H](CCCNC(=N)N)NC(=O)[C@H](CCC(N)=O)NC(=O)[C@@H](CCCNC(=N)N)NC(=O)[C@H](CCCNC(=N)N)NC(=O)[C@H](CCCCN)NC(=O)[C@H](CCCCN)NC(=O)[C@H](N)CCCNC(=N)N)[C@@H](C)O)C(=O)N[C@H](Cc1ccccc1)C(N)=O [SEQ ID NO: 172, rKKRrQRRrRPkRPaTLNLf] (H-[dR]KKR[dR]QRR[dR]RP[dK]RP[dA]TLNL[dF]-NH2; N-terminus assumed)
pIC50 (hJNK2): 7.26 | CD3/CD28-induced TNF-α release (human whole blood): did reduce the CD3/CD28-induced TNF-α release in a dose-dependent manner | AUC 1-8 g (allodynia) vs vehicle [1]: significantly decreased | AUC 8-60 g (hyperalgesia) vs vehicle [1]: reduced | haemorrhage scores vs vehicle [1]: no significant change | nociceptive scores vs vehicle [1]: significantly decreased | nociceptive threshold vs vehicle [1]: significantly increased | oedema scores vs vehicle [1]: significant decrease | urinary bladder wall thickness vs vehicle [1]: significantly decreased
